According to patent US20160244755A1, “TREATING DISEASES ASSOCIATED WITH PGC1-ALPHA BY MODULATING MICRORNAS MIR-130A AND MIR-130B” (ACADEMIA SINICA;, priority 2013, published 2016):
“Also recorded” adds a separate entry of the source. Where two headings read alike, the source gives them in different places.

Tests used:
Format in all cases: cell-based, human
HepG2 cells = experiment: measurement of glucose production in cell culture; set-up: glucose production: dose or concentration left out as unconfirmed
Method: Rosiglitazone and GW9662 were from Sigma. HepG2 and Huh7 cells were seeded in 6-well tissue culture plates at 5×10, Quasdorff, M. et al. Journal of viral hepatitis 17, 527-536 (2010) cells/well. At 24 h post-transfection, Rosiglitazone or GW9662 in 0.1% DMSO was added to medium. Culture medium was changed ever two days before harvest.
The glucose level of HBV transgenic mice was measured using a kit of DRI-CHEM SLIDE GLU-PIII (FUJIFILM, JAPAN). Ten microliters of mouse serum was deposited on a FUJI DRI-CHEM SLIDE GLU-PIII. Glucose oxidase (GOD) catalyzes the oxidization of sample glucose to generate hydrogen peroxide which then reacts with dye precursors and forms red dye. The optical reflection density was measured at 505 nm by the FUJI DRI-CHEM analyzer and converted into the glucose concentration […]. For the measurement of glucose concentration in cell culture, HBV producing cells (HepG2 and Q7 cells) were treated with PPARγ antagonist, GW9662 at indicated concentrations. Twenty-four hours before glucose measurement, the medium was replaced with 1 ml of glucose-free DMEM, supplemented with 2 mM sodium pyruvate. After 16 hrs incubation, 50 μl of medium was collected and the glucose concentration (mM) was measured using the glucose colorimetric assay (Biovision).

miR-130a = miR-130a expression in PPARγ-expressing HepG2 cell lines (stem-loop qPCR); settings: stable PPARγ-expressing HepG2 cell lines, U6 snRNA internal control
Method: Rosiglitazone and GW9662 were from Sigma. […] At 24 h post-transfection, Rosiglitazone or GW9662 in 0.1% DMSO was added to medium. Culture medium was changed ever two days before harvest.
Briefly, 100 ng RNAs were reverse transcribed by specific stem-loop primer and further analyzed by Taqman real-time PCR assay using default setting. […] Data were analyzed by Applied Biosystems 7500 software V2.0.1.

3′ UTR of PGC1α = experiment: compensatory mutagenesis luciferase cotransfection assay, PGC1α 3′UTR
Method: (§1) Assay for 3′ UTR or enhancer/promoter was as described previously. Chen, H. L., et al., PloS one 7, e34116 (2012).
To distinguish between a direct and an indirect mechanism of miR-130a on reducing PGC1α mRNA, a reporter assay was performed using 3′UTR from either PPARγ or PGC1α. […] Next, compensatory mutations were introduced into the seed sequences of miR-130a and its evolutionarily conserved target site of PGC1α (FIG. 10). […] In a dose-dependent manner, miR-130a could reduce, while LNA-miR-130a could increase, the luciferase activity of a reporter containing the 3′UTR of PGC1α (FIG. 11).

PGC1α mRNA = PGC1α mRNA in stable miR-130a expressing cell lines (Northern blot, RT-qPCR); settings: stable miR-130a expressing HepG2 cell lines
Method: (§2) Briefly, 2 μg of total RNA was reverse transcribed into cDNA using random primers and High Capacity cDNA Reverse Transcription kit (Applied Biosystem) at 37° C. for 120 minutes. The cDNA product was then diluted 100 times for real-time PCR analysis using Power SYBR Green PCR master mix (Applied Biosystem), and the default condition in a 20 μl reaction volume by Applied Biosystems 7500 Real-Time PCR System. Data were analyzed by relative quantification methods (AACt methods) using 7500 software V2.0.1.
(§3) HBV core particle-associated DNA, total cellular cytoplasmic RNA, and microRNA were analyzed by Northern blot as described previously. Chua, P. K., et al. Journal of virology 84, 2340-2351 (2010), Le Pogam, S., et al., Journal of virology 79, 1871-1887 (2005).
(§4) Approximately one million Huh7 and HepG2 cells were transiently transfected by 3 μg plasmid DNA (pSuper and pSuper-miR-130a) with Polyjet (SignaGen), followed by G418 selection for three weeks. The G418-resistant colonies were pooled together.

PPARγ mRNA = PPARγ mRNA in stable miR-130a expressing cell lines (Northern blot, RT-qPCR); settings: stable miR-130a expressing HepG2 cell lines
Method: as §2, §3, §4

PGC1α = PGC1α protein in stable miR-130a expressing cells (Western blot)
Text: (§5) Anti-HBc (Dako), anti-PPARγ (Santa Cruz), anti-GAPDH, anti-PKLR, anti-G6Pase, anti-tubulin, anti-adiponectin (GeneTex, Taiwan), anti-PGC1α (Origene), anti-PCK1 (Abnova), anti-GCK (Biovision), Secondary antibodies include mouse anti-rabbit-HRP, goat anti-mouse-HRP (GeneTex, Taiwan) and donkey anti-goat-HRP (Santa Cruz).
(§6) Native agarose gel electrophoresis and Western blot for detecting HBV core particles were as described. Chua, P. K., et al. Journal of virology 84, 2340-2351 (2010),
as §4

PPARγ = PPARγ protein in stable miR-130a expressing cells (Western blot)
Text: as §5, §6, §4

adiponectin [1] = experiment: adiponectin protein in stable miR-130a expressing cells (Western blot)
Text: as §5, §6, §4

adiponectin [2] = experiment: secreted adiponectin ELISA, miR-130a expressing cell lines
Method: The concentration of secreted adiponectin was measured by ELISA (Biovision). ELISA of HBsAg and HBeAg was from General Biologicals Co., Taiwan.
as §4

SP1 = SP1 protein in stable miR-130a expressing HepG2 cell lines (Western blot)
Method: as §6, §4

PPARα = PPARα protein in stable miR-130a expressing HepG2 cell lines (Western blot)
Method: as §6, §4

CEBPb = CEBPb protein in stable miR-130a expressing HepG2 cell lines (Western blot)
Method: as §6, §4

HNF4 = HNF4 protein in stable miR-130a expressing HepG2 cell lines (Western blot)
Method: as §6, §4

[3] = test system: 3′ UTR of PGC1α (NM_013261); experiment: luciferase reporter cotransfection assay, 3′ UTR of PGC1α; settings: for luciferase activity, reporter with 3′ UTR of PGC1α: reporter cotransfection assay
Text: as §1

[4] = test system: 3′ UTR of PPARγ (NM_005037); experiment: luciferase reporter cotransfection assay, 3′ UTR of PPARγ
Text: as §1

G6Pase mRNA = G6Pase mRNA in stable miR-130a expressing HepG2 cells (Northern blot)
Method: as §3, §4

PEPCK mRNA = PEPCK mRNA in stable miR-130a expressing HepG2 cells (Northern blot)
Method: as §3, §4

G6Pase = G6Pase protein in miR-130a expressing hepatocytes (Western blot)
Text: as §5, §6, §4

PEPCK = PEPCK protein in miR-130a expressing hepatocytes (Western blot)
Text: as §5, §6, §4

glucokinase (GCK) = glucokinase (GCK) protein in stable miR-130a expressing HepG2 cells (Western blot)
Text: as §5, §6, §4

pyruvate kinase (PKLR) = pyruvate kinase (PKLR) protein in stable miR-130a expressing cells (Western blot); settings: stable miR-130a expressing Huh? cells
Text: as §5, §6, §4

GCK mRNA = GCK mRNA in stable miR-130a expressing cells (RT-qPCR)
Method: as §2, §4

PKLR mRNA = PKLR mRNA in stable miR-130a expressing cells (RT-qPCR)
Method: as §2, §4

O=C(Nc1ccccc1)c1cc([N+](=O)[O-])ccc1Cl [GW9662]
glucose production (HepG2 cells; HepG2 cells, irrespective of HBV-producing status): further increased; also recorded: increase
expression of miR-130a (miR-130a): not

mutant miR-130a: miR-130a with compensatory mutations in the seed sequence, SEQ ID NO: 69 (CUGAGCAAUGUUAAAAGGGCAU; listed as RNA, chemistry not given here) [reference compound]
luciferase activity, mutant PGC1α 3′UTR target site (3′ UTR of PGC1α; combination of mutant miR-130a and mutant PGC1α, cotransfection): restore the inhibitory effect

miR-130a: human microRNA comprising CAGUGCAAUGUUAAAAGGGCAU (SEQ ID NO:1); expressed from pSuper-miR-130a in stable cell lines
PGC1α mRNA (PGC1α mRNA): reduction
PPARγ mRNA (PPARγ mRNA): reduction
PGC1α protein (PGC1α): reduction
PPARγ protein (PPARγ): reduction
adiponectin protein (adiponectin [1]): reduction
secreted adiponectin (adiponectin [2]): significantly reduced; also recorded: reduction
protein level of SP1 (SP1): No appreciable difference
protein level of PPARα (PPARα): No appreciable difference
protein level of CEBPb (CEBPb): No appreciable difference
protein level of HNF4 (HNF4): No appreciable difference
PGC1α 3′UTR luciferase reporter activity with increasing amounts ([3]; dose response, co-transfection): reduce; also recorded: decreasing reporter activity in a dose response manner
luciferase activity, reporter with 3′ UTR of PGC1α [3]: functional interaction
luciferase activity, reporter with 3′ UTR of PGC1α ([3]; listed as MiR-130a): significantly reduced
luciferase activity, reporter with 3′ UTR of PPARγ [4]: functional interaction
luciferase activity, reporter with 3′ UTR of PPARγ ([4]; listed as MiR-130a): significantly reduced
direct targeting of 3′ UTR of PGC1α by compensatory mutagenesis (3′ UTR of PGC1α; p<0.05): directly target
G6Pase mRNA expression (G6Pase mRNA): reductions; also recorded: reduced
PEPCK mRNA expression (PEPCK mRNA): reductions; also recorded: reduced
G6Pase protein expression (G6Pase): reductions; also recorded: Reduced
PEPCK protein expression (PEPCK): reductions; also recorded: Reduced
glucokinase (GCK) protein level (glucokinase (GCK)): not reduced but increased; also recorded: increased level
pyruvate kinase (PKLR) protein level (pyruvate kinase (PKLR)): not reduced but increased; also recorded: increased level
GCK specific mRNA level (GCK mRNA): increased
PKLR specific mRNA level (PKLR mRNA): increased
glucose level (HepG2 cells; control vs miR-130a producing cells): No significant difference
